Results from publication PMC4386773 (International Journal of Nanomedicine, 2015).
Converted amounts (≈) assume the structure as drawn. Marks after values point to notes of the source that are not given here.

How the values were obtained:
[1] = Nonparticulate PBPK modeling of SNX-2112 disposition in rats; format: in vivo; conditions: estimated by nonparticulate PBPK modeling
[2] = after oral administration; cited from earlier work
[3] = Solubility of SNX-2112 in water and oil; format: physicochemical

CLH (hepatic clearance) [1]: 0.0246 ^a L/h
solubility ([3]; soybean oil, oil or lipid): 5 µg/mL (≈ 10.8 µM)
solubility ([3]; water): 8 µg/mL (≈ 17.2 µM)
SMILES: CC1(C)CC(=O)c2c(C(F)(F)F)nn(-c3ccc(C(N)=O)c(N[C@H]4CC[C@H](O)CC4)c3)c2C1 [SNX-2112]
oral bioavailability [2]: hardly bioavailable
